According to PubChem BioAssay AID1963834 (Molecular Pharmacology Branch, DTP, NCI, 2024):

System: 873145-292-R-J1-PDC complex spheroid viability
Experiment: Anticancer human tumor 873145-292-R-J1-PDC patient-derived renal clear cell carcinoma cell line growth inhibition [POLQ]
Details: for IC50: curve of first compound; for viability, T/C: stronger effect = lower value
Procedure: Multicellular complex tumor spheroid response to Polymerase (POL) inhibitors (novobiocin, ART-558, RP6685) in combination with a variety of drugs and investigational agents in selected tumor cell lines
The POL inhibitors (novobiocin, ART-558, and RP6685) were evaluated both individually and in combination with standard of care and investigational anticancer small molecules within a complex spheroid model of solid tumors. . Complex spheroids include a stromal component modeled by human endothelial cells (HUVEC) and fibroblasts modeled by human mesenchymal stem cells (MSCs). The concentration ranges selected for each drug and investigational agent were based upon clinically achievable concentrations if the clinical Cmax of the agent was known.
Compounds. The drugs and investigational agents: novobiocin (NSC847541), ART-558 (NSC835418), RP-6685 (NSC848927), peposertib (NSC802822), ceralasertib (NSC780249), elimusertib (NSC800525), camonsertib (NSC841442), AZD-1390 (NSC803789), olaparib (NSC753686), talazoparib (NSC767125), rucaparib (NSC756644), sotorasib (NSC818433), MRTX-1133 (NSC836407), SN-38 (NSC673596), topotecan (NSC609699), epotoside (NSC141540), doxorubicin (NSC123127), gemcitabine (NSC613327), 5-fluorouracil (NSC19893), paclitaxel (NSC125973), vemurafenib (NSC761431), MSA-2 (NSC828583), SN-011 (NSC837082), adavosertib (NSC754352), prexasertib (NSC758257), carboplatin (NSC241240) and oxaliplatin (NSC266046), were obtained from the National Cancer Institute (NCI) Developmental Therapeutics Program Chemical Repository (21). The FDA-approved anticancer drug set is available from the Developmental Therapeutics Program at https://dtp.cancer.gov/organization/dscb/obtaining/. […] The stock solutions were prepared in dimethyl sulfoxide (DMSO, Sigma-Aldrich, St. Louis, MO, cat. D2650), except for the platinum compounds which were prepared in saline (Quality Biological, Gaithersburg, MD, cat. 114-055-101), at 800-fold the tested concentration and stored at -70 degrees C prior to their use. All drugs and investigational agents were tested over a range starting from a high concentration at or near the clinical Cmax and decreasing in half-log increments. If the clinical Cmax for an agent had not been determined, the highest concentration tested was 10 microM, except for SN-38, which was tested at a high concentration of 1 microM.
Cell Culture. All cells were maintained in an incubator at 37 degrees C and 5% CO2 with 95% humidity. The PDC lines were cultured according to standard operating procedures established by the NCI PDMR (https://pdmr.cancer.gov). Table 3 of the manuscript, lists the cell lines along with the number of the three cell types plated to form the mct-spheroids and media for tumor cell growth. After thawing, all PDC lines, except 997537-175-T-J1-PDC and 415267-285-R-J2-PDC, were cultured in Matrigel-coated flasks prepared with a working solution of 1X Ham's F-12 nutrient mix, without supplementation (Thermo Fisher Scientific, cat. 11765054), 100 U/mL penicillin-streptomycin (Thermo Fisher Scientific, cat. 15140122), and 2.5% Matrigel (Corning Inc., Corning, NY, cat. 354248) for the first three passages. The two PDC lines 997537-175-T-J1-PDC and 415267-285-R-J2-PDC were cultured on uncoated flasks. The 857933-349-R-J2-PDC line was cultured in 6C/Colon 1B media containing advanced DMEM/F-12 (Thermo Fisher Scientific, cat. 12634028), 10 mM HEPES (Thermo Fisher Scientific, cat. 15630080), 1X GlutaMAX supplement (Thermo Fisher Scientific, cat. 35050061), 0.1 mg/mL primocin (InvivoGen, San Diego, CA, cat. ant-pm-2), 10% defined fetal bovine serum, heat inactivated (HyClone Laboratories Inc., Logan, UT, cat. SH30070.03HI), 50% L-WRN conditioned media (ATCC, cat. CRL-3276), 1.25 mM N-Acetyl-L-cysteine (Sigma-Aldrich, cat. A9165), 10 mM nicotinamide (Sigma-Aldrich, cat. N0636), 1X B-27 supplement (Thermo Fisher Scientific, cat. 17504044), 1X N-2 supplement (Thermo Fisher Scientific, cat. […]

[1] = second compound 0.0316 µM, first compound 0.0316 µM
[2] = second compound 0.0316 µM, first compound 0.1 µM
[3] = second compound 0.0316 µM, first compound 0.316 µM
[4] = second compound 0.0316 µM, first compound 1 µM
[5] = second compound 0.1 µM, first compound 0.0316 µM
[6] = second compound 0.1 µM, first compound 0.1 µM
[7] = second compound 0.1 µM, first compound 0.316 µM
[8] = second compound 0.1 µM, first compound 1 µM
[9] = second compound 0.316 µM, first compound 0.0316 µM
[10] = second compound 0.316 µM, first compound 0.1 µM
[11] = second compound 0.316 µM, first compound 0.316 µM
[12] = second compound 0.316 µM, first compound 1 µM
[13] = second compound 1 µM, first compound 0.0316 µM
[14] = second compound 1 µM, first compound 0.1 µM
[15] = second compound 1 µM, first compound 0.316 µM
[16] = second compound 1 µM, first compound 1 µM
[17] = second compound 3.16 µM, first compound 0.0316 µM
[18] = second compound 3.16 µM, first compound 0.1 µM
[19] = second compound 3.16 µM, first compound 0.316 µM
[20] = second compound 3.16 µM, first compound 1 µM
[21] = second compound 10 µM, first compound 0.0316 µM
[22] = second compound 10 µM, first compound 0.1 µM
[23] = second compound 10 µM, first compound 0.316 µM
[24] = second compound 10 µM, first compound 1 µM
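Also: spheroids exposed to compounds for 7 days before viability readout.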
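For viability, T/C in this document: luminescence signal used as surrogate for viable cell content; 100% = DMSO vehicle control viability.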

Structure (SMILES): COc1ccc([C@@H](O)c2cc(-c3ncnc4cc(N5CCOCC5)ccc34)c(F)cc2Cl)nn1 + Cc1cccc(N(C)C(=O)C2C(O)CCN2c2nc(C)cc(C(F)(F)F)c2C#N)c1
- IC50 (second compound 0.0316 µM): 5230 nM
- IC50 (second compound 0.1 µM): 7850 nM
- IC50 (second compound 0.316 µM): 4080 nM
- IC50 (second compound 1 µM): 6450 nM
- IC50 (second compound 3.16 µM): 4830 nM
- IC50 (second compound 10 µM): 5890 nM
- viability, T/C [1]: 107%
- viability, T/C [2]: 92.1%
- viability, T/C [3]: 81.5%
- viability, T/C [4]: 66.6%
- viability, T/C (second compound 0.0316 µM, first compound 3.16 µM): 56.9%
- viability, T/C (second compound 0.0316 µM, first compound 10 µM): 42.5%
- viability, T/C [5]: 105%
- viability, T/C [6]: 95.3%
- viability, T/C [7]: 75.9%
- viability, T/C [8]: 73.1%
- viability, T/C (second compound 0.1 µM, first compound 3.16 µM): 64.7%
- viability, T/C (second compound 0.1 µM, first compound 10 µM): 44.4%
- viability, T/C [9]: 96%
- viability, T/C [10]: 88.5%
- viability, T/C [11]: 76.3%
- viability, T/C [12]: 65.2%
- viability, T/C (second compound 0.316 µM, first compound 3.16 µM): 55.8%
- viability, T/C (second compound 0.316 µM, first compound 10 µM): 37.5%
- viability, T/C [13]: 112%
- viability, T/C [14]: 88.2%
- viability, T/C [15]: 85.6%
- viability, T/C [16]: 72.5%
- viability, T/C (second compound 1 µM, first compound 3.16 µM): 56.1%
- viability, T/C (second compound 1 µM, first compound 10 µM): 45%
- viability, T/C [17]: 93.5%
- viability, T/C [18]: 85.1%
- viability, T/C [19]: 91%
- viability, T/C [20]: 71.6%
- viability, T/C (second compound 3.16 µM, first compound 3.16 µM): 57.4%
- viability, T/C (second compound 3.16 µM, first compound 10 µM): 39.2%
- viability, T/C [21]: 96.8%
- viability, T/C [22]: 82.1%
- viability, T/C [23]: 80.2%
- viability, T/C [24]: 71.2%
- viability, T/C (second compound 10 µM, first compound 3.16 µM): 58.1%
- viability, T/C (second compound 10 µM, first compound 10 µM): 42.4%

Structure (SMILES): CCc1c2c(nc3ccc(O)cc13)-c1cc3c(c(=O)n1C2)COC(=O)[C@]3(O)CC + Nc1ccc(C#CCN(C(=O)Cc2ncc(C(F)(F)F)cc2C(F)(F)F)c2ccc(F)cc2)nn1
- IC50 (second compound 0.0316 µM): 143 nM
- IC50 (second compound 0.1 µM): 66.2 nM
- IC50 (second compound 0.316 µM): 119 nM
- IC50 (second compound 1 µM): 114 nM
- IC50 (second compound 3.16 µM): 79 nM
- IC50 (second compound 10 µM): 173 nM
- viability, T/C (second compound 0.0316 µM, first compound 0.00316 µM): 104%
- viability, T/C (second compound 0.0316 µM, first compound 0.01 µM): 99.2%
- viability, T/C [1]: 62.1%
- viability, T/C [2]: 59.2%
- viability, T/C [3]: 44.1%
- viability, T/C [4]: 36.2%
- viability, T/C (second compound 0.1 µM, first compound 0.00316 µM): 106%
- viability, T/C (second compound 0.1 µM, first compound 0.01 µM): 102%
- viability, T/C [5]: 60%
- viability, T/C [6]: 48.7%
- viability, T/C [7]: 50.9%
- viability, T/C [8]: 30.2%
- viability, T/C (second compound 0.316 µM, first compound 0.00316 µM): 114%
- viability, T/C (second compound 0.316 µM, first compound 0.01 µM): 87.7%
- viability, T/C [9]: 62.2%
- viability, T/C [10]: 54.5%
- viability, T/C [11]: 44.5%
- viability, T/C [12]: 28.9%
- viability, T/C (second compound 1 µM, first compound 0.00316 µM): 99.8%
- viability, T/C (second compound 1 µM, first compound 0.01 µM): 85.2%
- viability, T/C [13]: 66.4%
- viability, T/C [14]: 51.5%
- viability, T/C [15]: 41.7%
- viability, T/C [16]: 39.9%
- viability, T/C (second compound 3.16 µM, first compound 0.00316 µM): 94.5%
- viability, T/C (second compound 3.16 µM, first compound 0.01 µM): 97.8%
- viability, T/C [17]: 67.6%
- viability, T/C [18]: 47.9%
- viability, T/C [19]: 42%
- viability, T/C [20]: 35.9%
- viability, T/C (second compound 10 µM, first compound 0.00316 µM): 111%
- viability, T/C (second compound 10 µM, first compound 0.01 µM): 94.5%
- viability, T/C [21]: 66.8%
- viability, T/C [22]: 55.8%
- viability, T/C [23]: 47.4%
- viability, T/C [24]: 34.9%
